Data taken from patent US20040208842A1, “Antimicrobial cleansing compositions and methods of use” (priority 2001, published 2004).
Where “and” joins values, the source holds several entries; their conditions need not be identical. Equal values may be shown once.

Columns and labels:
[1] = system: Enterococcus faecalis; experiment: MIC (broth-dilution microtiter) and FIC/isobologram (microtiter checkerboard) of EDTA-Tris and antibiotics; assay type: cell-based; conditions: Ent. faecalis
Procedure: (§1) Agents and Chem. 210-217. (1967) and Sparks et al., Vet. Res. Comm. 18, 241-249 (1994), incorporated herein by reference in their entireties.
(§2) Then 0.05 ml of an 18-hour old culture of a test organism, containing 10^6 colony-forming units (CFU)/ml, was added to each well. Controls for the culture and media were included in each plate. Plates were covered and incubated at 37° Celsius for 18-24 hours.
(§3) To generate isobolograms, FICs of the two test solutions were plotted individually on the x-axis and y-axis to determine the effect of combining the two test solutions on bacterial growth. A line that curves away from the zero point and the coordinates indicates antagonism.
(§4) A numerical score or fractional inhibitory concentration (FIC) index was determined. The FIC index is equal to the sum of the values of FIC for the individual drugs: [formula]
(§5) An FIC index greater than 1.0 indicates an antagonistic interaction, an FIC index of 1.0 indicates addition, and an FIC index of less than or equal to 0.5 indicates synergism between the two test agents.
(§6) The organisms of this study were isolated from human burn patients. They included strains of methicillin resistant Staphylococcus aureus, and vancomycin resistant strains of Pseudomonas aeruginosa and Enterococcus faecalis. The bacterial isolates were propagated in or on Brain Heart Infusion broth (BHI), Mueller-Hinton Broth (MHB), blood agar (BA), Mueller-Hinton agar (MHA), enterococcus agar (EA), or 2× nutrient agar (2×NA).

[2] = system: Staphylococcus aureus; experiment: as above; assay type: cell-based; conditions: Staph. aureus
Procedure: as §1, §2, §3, §4, §5, §6

[3] = system: Pseudomonas aeruginosa; experiment: as above; assay type: cell-based; conditions: Ps. aeruginosa
Procedure: as §1, §2, §3, §4, §5, §6

[4] = system: Enterococcus faecalis; experiment: Antibiotic resistance profile by disc diffusion on MHA; assay type: cell-based; conditions: human burn isolate; also: key: R = resistant; I = intermediate; S = sensitive
Procedure: as §6
(§7) Antibiotic resistance profiles were determined by the disc diffusion method on MHA (5).

[5] = system: Staphylococcus aureus; experiment: as above; assay type: cell-based; conditions: human burn isolate
Procedure: as §6, §7

[6] = system: Pseudomonas aeruginosa; experiment: as above; assay type: cell-based; conditions: human burn isolate
Procedure: as §6, §7

[7] = system: E. coli; experiment: MIC and MBC of cleanser formulation and components; assay type: cell-based, Escherichia coli; conditions: cocamidopropyl betaine alone
Procedure: (§8) The solution containing 10% cocamidopropyl betaine was selected for further testing. The formulation was tested against Pseudomonas aeruginosa, Proteus mirabilis, […] coli, Staphylococcus intermedius, Malassezia pachydermatis, and Candida albicans.

[8] = system: Proteus mirabilis; experiment: MIC and MBC of cleanser formulation and components; assay type: cell-based; conditions: P. mirabilis; cocamidopropyl betaine alone
Procedure: as §8

[9] = system: Malassezia pachydermatis; experiment: MIC and MBC of cleanser formulation and components; assay type: cell-based; conditions: M. pachydermatis; cocamidopropyl betaine alone
Procedure: as §8

[10] = system: Staphylococcus intermedius; experiment: MIC and MBC of cleanser formulation and components; assay type: cell-based; conditions: S. intermedius; cocamidopropyl betaine alone
Procedure: as §8

[11] = system: Candida albicans; experiment: MIC and MBC of cleanser formulation and components; assay type: cell-based; conditions: C. albicans; cocamidopropyl betaine alone
Procedure: as §8

[12] = system: Pseudomonas aeruginosa; experiment: MIC and MBC of cleanser formulation and components; assay type: cell-based; conditions: P. aeruginosa; cocamidopropyl betaine alone
Procedure: as §8

[13] = system: Enterococcus faecalis; experiment: Minimal Bactericidal Concentration (MBC) of EDTA and neomycin in 50 mM Tris; assay type: cell-based
From the text: as §6

[14] = system: Staphylococcus aureus; experiment: as above; assay type: cell-based; conditions: Staph. aureus
From the text: as §6

[15] = system: Pseudomonas aeruginosa; experiment: as above; assay type: cell-based; conditions: Ps. aeruginosa
From the text: as §6
For Antibiotic resistance profile in this document: key: R = resistant; I = intermediate; S = sensitive.

O=C(O)CN(CCN(CC(=O)O)CC(=O)O)CC(=O)O [EDTA, ethylenediamenetetracetic acid]
MIC, EDTA Individually Administered ([1]; EDTA in 50 mM Tris alone): 15630 µM
MIC, EDTA Individually Administered ([2]; EDTA in 50 mM Tris alone): 1000 µM
MIC, EDTA Individually Administered ([3]; EDTA in 50 mM Tris alone): 1250 µM

CN[C@H](CC(C)C)C(=O)N[C@H]1C(=O)N[C@@H](CC(N)=O)C(=O)N[C@H]2C(=O)N[C@H]3C(=O)N[C@H](C(=O)N[C@H](C(=O)O)c4cc(O)cc(O)c4-c4cc3ccc4O)[C@H](O)c3ccc(c(Cl)c3)Oc3cc2cc(c3O[C@@H]2O[C@H](CO)[C@@H](O)[C@H](O)[C@H]2O[C@H]2C[C@](C)(N)[C@H](O)[C@H](C)O2)Oc2ccc(cc2Cl)[C@H]1O [Va, vancomycin]
Antibiotic resistance profile [4]: R
Antibiotic resistance profile [5]: S
Antibiotic resistance profile [6]: R

cocamidopropyl betaine
MBC [7]: 50% of stock solution
MIC [7]: 25% of stock solution
MBC [8]: 50% of stock solution
MIC [8]: 25% of stock solution
MBC [9]: 0.3% of stock solution
MIC [9]: 0.1% of stock solution
MBC [10]: 0.1% of stock solution
MIC [10]: 0.1% of stock solution
MBC [11]: 0.3% of stock solution
MIC [11]: 0.1% of stock solution
MBC [12]: 50% of stock solution
MIC [12]: 25% of stock solution

gentamicin [Gm]
Antibiotic resistance profile [4]: R
Antibiotic resistance profile [5]: S
Antibiotic resistance profile [6]: I

neomycin
MBC of Neomycin, Individually Administered ([13]; En. faecalis, in 50 mM Tris): 25000 µg/mL
MBC of Neomycin, Co-administered ([13]; En. faecalis, with EDTA, in 50 mM Tris): 6250 µg/mL
Decrease of MBC value when EDTA and neomycin combined compared to individually administered ([13]; Ent. faecalis): 75%
Decrease of MBC value when EDTA and neomycin combined compared to individually administered [14]: about 50% and 50%
MBC of Neomycin, Individually Administered ([14]; in 50 mM Tris): 3130 µg/mL
MBC of Neomycin, Co-administered ([14]; with EDTA, in 50 mM Tris): 1560 µg/mL
MBC of Neomycin, Individually Administered [15]: 5000 µg/mL
MBC of Neomycin, Co-administered ([15]; with EDTA): 40 µg/mL
Antibiotic resistance profile [4]: R
Antibiotic resistance profile [5]: R
Antibiotic resistance profile [6]: R
MIC, antibiotic Individually Administered ([1]; antibiotic alone): 3130 µg/mL
MIC, antibiotic Individually Administered ([2]; antibiotic alone): 3130 µg/mL
MIC, antibiotic Individually Administered ([3]; antibiotic alone): 1000 µg/mL
